In patent US9029337B2, “Modulation of factor 7 expression” (Isis Pharmaceuticals, Inc., priority 2007, dated 2015):
e = 2'-O-(2-methoxyethyl) (MOE); d = 2'-deoxy (DNA)

Assays:
Type in all cases: in vivo, mouse
murine Factor 7 mRNA [1] = assay: Antisense inhibition of murine Factor 7 mRNA in liver of BALB/c mice, dose response
Description: (§1) BALB/c mice were treated with ISIS 403102 ([…], target site 11336, incorporated herein as SEQ ID NO: 161). BALB/c mice were injected subcutaneously with 5 mg/kg, 10 mg/kg, 25 mg/kg, or 50 mg/kg of ISIS 403102 twice a week for 3 weeks. A control group of mice was injected subcutaneously with PBS twice a week for 3 weeks. After the treatment period, whole liver was collected for RNA and protein analysis, and plasma was collected for clotting analysis (PT/aPTT).
RNA was extracted from liver tissue for real-time RT-PCR analysis of Factor 7. […] Results are presented as percent inhibition of Factor 7, relative to the control.

murine Factor 7 protein = assay: Plasma Factor 7 protein, Factor 7 chromogenic assay, BALB/c mice
Description: as §1
Plasma Factor 7 protein was measured using a Factor 7 chromogenic assay (Hyphen BioMed). […] Results are presented as percent inhibition of Factor 7, relative to control.

[2] = system: intrinsic pathway of blood coagulation; assay: Activated Partial Thromboplastin Time (aPTT) in platelet poor plasma of treated BALB/c mice
Description: Prothrombin Time (PT) and Activated Partial Thromboplastin Time (aPTT) were measured using platelet poor plasma (PPP) from mice treated with ISIS 403102. PT and aPTT values provided in Table 20 are reported as International Normalized Ratio (INR) values. INR values for PT and aPTT were determined by dividing the PT or aPTT value for the experimental group by the PT or aPTT for the PBS treated group. This ratio was then raised to the power of the International Sensitivity Index (ISI) of the tissue factor used.
Prothrombin Time (PT) and Activated Partial Thromboplastin Time (aPTT) were measured using platelet poor plasma (PPP) from mice treated with ISIS 403102. PT and aPTT values provided in Table 22 are reported as International Normalized Ratio (INR) values. INR values for PT and aPTT were determined by dividing the PT or aPTT value for the experimental group (i.e. 50 mg/kg treatment with ISIS 403102) by the PT or aPTT for the PBS treated group. This ratio was then raised to the power of the International Sensitivity Index (ISI) of the tissue factor used.
Prothrombin Time (PT) and Activated Partial Thromboplastin Time (aPTT) were measured using platelet poor plasma (PPP) from mice treated with ISIS 403102. PT and aPTT values provided in Table 24 are reported as International Normalized Ratio (INR) values. INR values for PT and aPTT were determined by dividing the PT or aPTT value for the experimental group (i.e. 50 mg/kg treatment with ISIS 403102) by the PT or aPTT for the PBS treated group. This ratio was then raised to the power of the International Sensitivity Index (ISI) of the tissue factor used.

murine Factor 7 mRNA [3] = assay: Liver Factor 7 mRNA in the FeCl3 induced venous thrombosis model; conditions: for % inhibition of Factor 7 mRNA: liver; for % inhibition of Factor 7 mRNA, relative to PBS control: BALB/c mice liver, two days after last dose
Description: Three groups of BALB/c mice were injected with 25 mg/kg, 37.5 mg/kg, or 50 mg/kg of ISIS 403102, administered subcutaneously twice a week for 3 weeks. Two control groups of BALB/c mice were treated with PBS, administered subcutaneously twice a week for 3 weeks. Thrombus formation was induced with FeCl3 in half of the mice while the rest of the mice were assayed for tail bleeding. Two days after receiving the last dose of ISIS 403102 or PBS, mice were anesthetized with 150 mg/kg ketamine mixed with 10 mg/kg xylazine administered by intraperitoneal injection. Thrombus formation was induced with FeCl3 in all groups of the VT mice except the first control group.
In mice undergoing FeCl3 treatment, thrombus formation was induced by applying a piece of filter paper (2×4 mm) pre-saturated with 10% FeCl3 solution directly on the vena cava. After 3 minutes of exposure, the filter paper was removed. Thirty minutes after the filter paper application, a fixed length of the vein containing the thrombus was dissected out for platelet analysis. Liver was collected for RNA analysis.
RNA was extracted from liver tissue for real-time RT-PCR analysis of Factor 7. Results are presented as percent inhibition of Factor 7, relative to PBS control.
ISIS 403102 and warfarin (Coumadin®) were evaluated in BALB/c mice. Four groups of BALB/c mice were treated with 5 mg/kg, 10 mg/kg, 20 mg/kg, or 40 mg/kg of ISIS 403102, administered subcutaneously twice a week for 3 weeks. Two days after receiving the last dose of ISIS 403102, mice were anesthetized with 150 mg/kg ketamine mixed with 10 mg/kg xylazine administered by intraperitoneal injection. A fifth group of BALB/c mice was treated with 3 mg/kg of warfarin, administered intraperioneally daily for 6 days. Four hours after the last dose of warfarin, mice were sacrificed. A control group of BALB/c mice were treated with PBS, administered subcutaneously twice a week for 3 weeks. Two days after the last dose of PBS, mice were anesthetized with 150 mg/kg ketamine mixed with 10 mg/kg xylazine administered by intraperitoneal injection. Thrombus formation was induced with FeCl3 in groups of mice except the first control group.

[4] = 10 mg/kg subcutaneously twice a week for 3 weeks
[5] = 25 mg/kg subcutaneously twice a week for 3 weeks
[6] = 50 mg/kg subcutaneously twice a week for 3 weeks
[7] = 5-50 mg/kg twice a week for 3 weeks

CCATAGAACAGCTTCACAGG (sugars from the 5' end e5 d10 e5, backbone and methylation of C not given here) [ISIS 403102]
% inhibition of murine Factor 7 mRNA (murine Factor 7 mRNA [1]; 5 mg/kg subcutaneously twice a week for 3 weeks, relative to PBS control): 64%
% inhibition of murine Factor 7 mRNA (murine Factor 7 mRNA [1]; [4]): 84%
% inhibition of murine Factor 7 mRNA (murine Factor 7 mRNA [1]; [5]): 96%
% inhibition of murine Factor 7 mRNA (murine Factor 7 mRNA [1]; [6]): 99%
reduction of murine Factor 7 mRNA over the PBS control (murine Factor 7 mRNA [1]; [7]): dose-dependent reduction of murine Factor 7
% inhibition of murine Factor 7 protein (murine Factor 7 protein; 5 mg/kg subcutaneously twice a week for 3 weeks): 71%
% inhibition of murine Factor 7 protein (murine Factor 7 protein; [4]): 88%
% inhibition of murine Factor 7 protein (murine Factor 7 protein; [5]): 99%
% inhibition of murine Factor 7 protein (murine Factor 7 protein; [6]): 99%
reduction of murine Factor 7 protein over the PBS control (murine Factor 7 protein; [7]): dose-dependent reduction of murine Factor 7 protein
aPTT INR ([2]; BALB/c mice, 5 mg/kg, relative to PBS treated group): 1.05
aPTT INR ([2]; BALB/c mice, 10 mg/kg, relative to PBS treated group): 1.04
aPTT INR ([2]; BALB/c mice, 25 mg/kg, relative to PBS treated group): 1.09
aPTT INR ([2]; BALB/c mice, 50 mg/kg, 1 dose, 1 day after last dose, relative to PBS group): 1.08 INR
aPTT INR ([2]; BALB/c mice, 50 mg/kg, 1 dose, 3 days after last dose, relative to PBS group): 1.10 INR
aPTT INR ([2]; BALB/c mice, 50 mg/kg, 2 doses, 3 days after last dose, relative to PBS group): 1.29 INR
aPTT INR ([2]; BALB/c mice, 50 mg/kg, 4 doses, 3 days after last dose, relative to PBS group): 1.53 INR
aPTT INR ([2]; BALB/c mice, 50 mg/kg, 6 doses, 2 days after last dose, relative to PBS group): 1.62 INR
aPTT INR ([2]; BALB/c mice, 50 mg/kg, 6 doses, 7 days after last dose, relative to PBS group): 1.67 INR
aPTT INR ([2]; BALB/c mice, 50 mg/kg, 6 doses, 14 days after last dose, relative to PBS group): 1.25 INR
aPTT INR ([2]; BALB/c mice, 50 mg/kg, 6 doses, 28 days after last dose, relative to PBS group): 0.90 INR
aPTT INR ([2]; BALB/c mice, 50 mg/kg, 6 doses, 42 days after last dose, relative to PBS group): 1.00 INR
aPTT INR ([2]; BALB/c mice, 50 mg/kg, 6 doses, 56 days after last dose, relative to PBS group): 0.98 INR
aPTT INR ([2]; BALB/c mice, 50 mg/kg, relative to PBS treated group): 1.16
aPTT INR ([2]; BALB/c mice, single dose 50 mg/kg, day 1): 1.00
aPTT INR ([2]; BALB/c mice, single dose 50 mg/kg, day 2): 1.05
aPTT INR ([2]; BALB/c mice, single dose 50 mg/kg, day 3): 1.24
aPTT INR ([2]; BALB/c mice, single dose 50 mg/kg, day 4): 1.15
aPTT INR ([2]; BALB/c mice, single dose 50 mg/kg, day 6): 1.23
aPTT INR ([2]; BALB/c mice, single dose 50 mg/kg, day 8): 1.18
aPTT INR ([2]; BALB/c mice, single dose 50 mg/kg, day 12): 1.18
aPTT INR ([2]; BALB/c mice, single dose 50 mg/kg, day 24): 1.02
aPTT INR ([2]; BALB/c mice, single dose 50 mg/kg, day 56): 0.97
aPTT compared to the control ([2]; Example 11, 5-50 mg/kg twice a week for 3 weeks): slightly prolonged
aPTT ([2]; Example 13, 6 doses, from day 7 to day 56): decreased
aPTT INR ([2]; single dose 50 mg/kg, day 4): 1.24
aPTT INR ([2]; single dose 50 mg/kg, day 56): 0.97
aPTT INR ([2]; single dose 50 mg/kg, starting value before the rise to day 4): 1.00
% inhibition of Factor 7 mRNA (murine Factor 7 mRNA [3]; Example 14, 25 mg/kg subcutaneously twice a week for 3 weeks): 24%
% inhibition of Factor 7 mRNA (murine Factor 7 mRNA [3]; Example 14, 37.5 mg/kg subcutaneously twice a week for 3 weeks): 74%
% inhibition of Factor 7 mRNA (murine Factor 7 mRNA [3]; Example 14, 50 mg/kg subcutaneously twice a week for 3 weeks): 69%
reduction of Factor 7 mRNA in comparison to the PBS control (murine Factor 7 mRNA [3]; Example 14, 25, 37.5, 50 mg/kg twice a week for 3 weeks): significant dose-dependent reduction of Factor 7 mRNA
reduction of Factor 7 mRNA in comparison to the PBS control (murine Factor 7 mRNA [3]; Example 15, 5, 10, 20, 40 mg/kg subcutaneously twice a week for 3 weeks): significant dose-dependent reduction of Factor 7 mRNA
% inhibition of Factor 7 mRNA, relative to PBS control (murine Factor 7 mRNA [3]; Example 15, 5 mg/kg s.c. twice a week for 3 weeks): 59%
% inhibition of Factor 7 mRNA, relative to PBS control (murine Factor 7 mRNA [3]; Example 15, 10 mg/kg s.c. twice a week for 3 weeks): 84%
% inhibition of Factor 7 mRNA, relative to PBS control (murine Factor 7 mRNA [3]; Example 15, 20 mg/kg s.c. twice a week for 3 weeks): 95%
% inhibition of Factor 7 mRNA, relative to PBS control (murine Factor 7 mRNA [3]; Example 15, 40 mg/kg s.c. twice a week for 3 weeks): 99%
